Results reported in patent US9856256B2, “Pyridino[1,2-A]pyrimidone analogue used as P13K inhibitor” (CHIA TAI TIANQING PHARMACEUTICAL GROUP CO., LTD., priority 2014, dated 2018).

Key:
PI3K (p110α) = PI3K (p110α) (Homo sapiens, UniProt P42336); experiment: In vitro enzyme activity assay, PI3K (p110α) kinase, Method II (ADP-Glo assay); type: biochemical; design: purchased Millipore 14-602-K; details: read-out: PI3K (p110α) enzyme activity_IC50
Method: PI3K (p110α) kinase activities of the compounds in all the examples of the present invention were tested via the following two methods, respectively.
Dilution of the Compound:
The compound to be tested was diluted with a 3-fold concentration gradient, and 10 concentrations (from 10000 nM to 0.5 nM) were obtained in total.
50 nL of the compound was transferred to a reaction plate (PerkinElmer #6007299) and 3 μL of enzyme/substrate mixture (0.33 nM PI3Kalpha, Millipore #14-602-K/166.5 μM PIP2) was added. After 20 min incubation, 2 uL of ATP solution (100 uM) was added to initiate the reaction. After reacting for 2 hours at room temperature, 5 μL of ADP-Glo reagent was added to terminate the kinase reaction. Then the mixture was incubated at room temperature for 60 min to completely digest the remaining unreacted ATP, 10 uL of kinase detection reagent was added, and after 40 min incubation at room temperature, […] was readed on an Envision. PIP2, ATP, ADP-Glo and the kinase detection reagent were all from ADP-Glo kinase assay kit (Promega #V1792).
IC50 was calculated using standard 4-parameter fit method (Model205, XL-fit, iDBS).

MCF-7 cells = experiment: In vitro cell activity assay (MCF-7, insulin stimulation, ELISA-One); type: cell-based; details: Homo sapiens, MCF7, compound 2 hours in serum-free media, then 10 μg/ml insulin 30 min
Method: Experimental Steps and Method Comprise:
1. MCF-7 cells were seeded at 2,5000 cells per well in a 96 well tissue culture plate in a complete media containing 10%0/FBS.
3. The cells were treated with 10 μg/ml insulin in serum-free media for 30 min.
4. During waiting period, lysis solution was prepared as below:
a) Enhancer Solution needs to be taken out from the refrigerator to be thawed.
b) Concentrated lysis solution was prepared by diluting Enhancer Solution 10-fold in 5× Lysis Buffer.
c) Lysis solution was prepared by diluting concentrated lysis solution 5-fold with ddH2O.
5. Any media were removed from wells and the wells were rinsed with PBS once quickly.
6. 50 μL of freshly prepared lysis solution were added into each well, with shaking at room temperature for 10 min.
7. After confirming that all cells get detached from wells, the lysis solution together with the cell debris was transferred to 1.5 ml tubes.
8. The tubes were vortexed several times to thoroughly mix the lysis solution and cells, and then, and then the mixture was centrifuged at 12,000 g for 10 min at 4° C.;
9. The desired number of ELISA-One microplate strips was determined. Unused strips were removed from frame and returned to storage pouch and seal. Wells for use in the assay were rinsed with 200 μL ddH2O to remove preservatives prior to use.
10. 50 μL of antibody mixture solution was added into each well. (Antibody mixture solution was prepared by mixing capture antibody reagent and detection antibody reagent equally, avoid vortexing)
11. 25 μL of lysate was added into each well of the ELISA-One microplate. The microplate was covered with adhesive seal and incubated for 1 hour at room temperature on a microplate shaker.
12. Each well was washed with 150 μL 1× wash buffer 3 times. After final wash, any remaining wash buffer was removed from wells. If necessary, leave microplate in 1× Wash Buffer for up to 30 min, until substrate mixture solution has been prepared.
13. The substrate mixture solution should be prepared when used, 100 μL of substrate mixture solution was added into each well, and then the microplate was sealed with tin foil and incubated at room temperature for 10 minutes on a microplate shaker.
14. 10 μL of stop solution was added into each well, and then mixed slightly (5-10 seconds) on a microplate shaker.
15. Corresponding ELISA-One filter set was installed to read the fluorescence signal intensity.

PI3K (p110α), sequence (P42336 whole entry): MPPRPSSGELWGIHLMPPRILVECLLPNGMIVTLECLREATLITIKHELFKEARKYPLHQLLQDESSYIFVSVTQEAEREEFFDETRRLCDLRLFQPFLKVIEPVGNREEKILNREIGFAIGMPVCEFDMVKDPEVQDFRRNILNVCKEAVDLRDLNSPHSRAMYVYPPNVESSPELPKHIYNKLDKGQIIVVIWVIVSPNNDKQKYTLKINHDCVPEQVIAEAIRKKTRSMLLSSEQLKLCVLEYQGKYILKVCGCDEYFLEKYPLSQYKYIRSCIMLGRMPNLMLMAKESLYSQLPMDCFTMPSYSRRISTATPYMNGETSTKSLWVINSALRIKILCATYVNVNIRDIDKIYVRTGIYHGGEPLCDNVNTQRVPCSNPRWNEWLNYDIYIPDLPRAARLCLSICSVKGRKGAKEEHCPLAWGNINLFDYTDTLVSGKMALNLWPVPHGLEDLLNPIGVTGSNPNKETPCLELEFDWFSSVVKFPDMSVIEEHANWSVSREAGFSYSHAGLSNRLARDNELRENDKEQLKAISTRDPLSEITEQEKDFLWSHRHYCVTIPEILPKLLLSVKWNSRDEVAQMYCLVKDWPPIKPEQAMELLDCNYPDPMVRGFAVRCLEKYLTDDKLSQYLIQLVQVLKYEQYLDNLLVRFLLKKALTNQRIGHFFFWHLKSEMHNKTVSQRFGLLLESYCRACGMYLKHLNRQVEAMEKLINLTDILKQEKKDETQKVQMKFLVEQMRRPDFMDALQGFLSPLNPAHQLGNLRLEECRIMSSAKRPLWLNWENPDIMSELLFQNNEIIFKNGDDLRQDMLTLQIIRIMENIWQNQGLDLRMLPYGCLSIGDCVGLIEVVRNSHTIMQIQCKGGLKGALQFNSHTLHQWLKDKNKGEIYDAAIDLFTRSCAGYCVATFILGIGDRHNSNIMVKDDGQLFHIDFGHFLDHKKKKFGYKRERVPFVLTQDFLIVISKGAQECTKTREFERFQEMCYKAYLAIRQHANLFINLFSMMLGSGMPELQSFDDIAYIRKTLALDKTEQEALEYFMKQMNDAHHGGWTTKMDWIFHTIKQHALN
PI3K (p110α), sequence (P27986 whole entry partner): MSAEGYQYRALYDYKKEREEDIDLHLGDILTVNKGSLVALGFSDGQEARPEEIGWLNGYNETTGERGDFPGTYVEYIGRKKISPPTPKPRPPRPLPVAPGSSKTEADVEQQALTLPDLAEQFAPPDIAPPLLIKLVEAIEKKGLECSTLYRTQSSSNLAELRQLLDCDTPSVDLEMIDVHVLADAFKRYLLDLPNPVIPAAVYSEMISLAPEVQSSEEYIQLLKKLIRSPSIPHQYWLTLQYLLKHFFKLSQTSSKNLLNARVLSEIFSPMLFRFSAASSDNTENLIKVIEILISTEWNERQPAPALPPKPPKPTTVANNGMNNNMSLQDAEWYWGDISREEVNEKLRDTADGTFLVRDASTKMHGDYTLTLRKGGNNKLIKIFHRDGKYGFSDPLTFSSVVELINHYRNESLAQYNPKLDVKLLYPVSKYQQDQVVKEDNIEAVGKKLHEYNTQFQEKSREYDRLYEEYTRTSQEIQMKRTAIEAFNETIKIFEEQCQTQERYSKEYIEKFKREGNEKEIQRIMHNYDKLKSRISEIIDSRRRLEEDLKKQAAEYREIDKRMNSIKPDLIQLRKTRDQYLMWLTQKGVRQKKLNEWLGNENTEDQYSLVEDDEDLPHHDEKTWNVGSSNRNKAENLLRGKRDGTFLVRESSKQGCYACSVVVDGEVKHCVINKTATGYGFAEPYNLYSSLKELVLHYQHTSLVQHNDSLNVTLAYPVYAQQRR

| SMILES | IC50 (PI3K (p110α)) [nM] | IC50 (MCF-7 cells) [nM] |
| --- | --- | --- |
| COc1ncc(-c2ccc3ncc(OCC4CN(C)C4)c(=O)n3c2)cc1NS(=O)(=O)c1ccc(F)cc1Cl [Compound 28] | – | ≤ 50 |
| COc1ncc(-c2ccc3ncc(OCC4(C)CNC4)c(=O)n3c2)cc1NS(=O)(=O)c1ccc(F)cc1Cl [Compound 29] | – | > 250 |
| COc1ncc(-c2ccc3ncc(OC4CNC4)c(=O)n3c2)cc1NS(=O)(=O)c1ccc(F)cc1Cl [Compound 30] | – | > 250 |
| COc1ncc(-c2ccc3ncc(OCCn4ccc(C)n4)c(=O)n3c2)cc1NS(=O)(=O)c1ccc(F)cc1F [Compound 38] | 1 to 50 | – |
| COc1ncc(-c2ccc3ncc(OCCn4ccc(C(F)(F)F)n4)c(=O)n3c2)cc1NS(=O)(=O)c1ccc(F)cc1F [Compound 39] | 1 to 50 | – |
| COc1ncc(-c2ccc3ncc(OCCn4nccc4C)c(=O)n3c2)cc1NS(=O)(=O)c1ccc(F)cc1F [Compound 40] | 1 to 50 | – |
| COc1ncc(-c2ccc3ncc(CN4CCOCC4)c(=O)n3c2)cc1NS(=O)(=O)c1sc(C)nc1C [Compound 51, N-(2-Methoxy-5-(3-(morpholinomethyl)-4-oxo-4H-pyrido[1,2-a]pyrimidin-7-yl)pyridin-3-yl)-2,4-dimethylthiazole-5-sulfonamide] | 1 to 50 | – |
| COc1ncc(-c2ccc3ncc(CN(C)C)c(=O)n3c2)cc1NS(=O)(=O)c1sc(C)nc1C [Compound 52] | 1 to 50 | – |
| COc1ncc(-c2ccc3ncc(OCCN4CCOCC4)c(=O)n3c2)cc1NC(=O)Nc1sc(C)nc1C [Compound 54] | > 200 | – |
| COc1ncc(-c2ccc3ncc(OCCN4CCOCC4)c(=O)n3c2)cc1NC(=O)c1sc(C)nc1C [Compound 56, N-(2-Methoxy-5-(3-(2-morpholinoethoxy)-4-oxo-4H-pyrido[1,2-a]pyrimidin-7-yl)pyridin-3-yl)-2,4-dimethylthiazole-5-carboxamide] | > 200 | – |
| COc1ncc(-c2ccc3ncc(OCCN4CCOCC4)c(=O)n3c2)cc1S(=O)(=O)Nc1sc(C)nc1C [Compound 58, N-(2,4-dimethylthiazol-5-yl)-2-methoxy-5-(3-(2-morpholinoethoxy)-4-oxo-4H-4H-pyrido[1,2-a]pyrimidin-7-yl)pyridine-3-sulfonamide] | > 200 | – |
| COc1ncc(-c2ccc3ncc(OCC(C)N4CCOCC4)c(=O)n3c2)cc1NS(=O)(=O)c1ccc(F)cc1Cl (stereo not shown) [Compound 66] | 1 to 50 | ≤ 50 |
| COc1ncc(-c2ccc3ncc(OC(C)CN4CCOCC4)c(=O)n3c2)cc1NS(=O)(=O)c1ccc(F)cc1Cl (stereo not shown) [Compound 67] | 1 to 50 | – |
| COc1ncc(-c2ccc3ncc(OCCN4CCN(CC(F)(F)F)CC4)c(=O)n3c2)cc1NS(=O)(=O)c1ccc(F)cc1Cl [Compound 69] | – | ≤ 50 |
| COc1ncc(-c2ccc3ncc(OCC(C)(C)N4CCOCC4)c(=O)n3c2)cc1NS(=O)(=O)c1ccc(F)cc1Cl [Compound 70] | 1 to 50 | 100 to 250 |
| COc1ncc(-c2ccc3ncc(OCC4CCN(C)CC4)c(=O)n3c2)cc1NS(=O)(=O)c1ccc(F)cc1Cl [Compound 71] | 1 to 50 | – |
| COc1ncc(-c2ccc3ncc(OCCCN4CCN(C)CC4)c(=O)n3c2)cc1NS(=O)(=O)c1ccc(F)cc1Cl [Compound 72] | – | ≤ 50 |
| COc1ncc(-c2ccc3ncc(OC4CN(C)C4)c(=O)n3c2)cc1NS(=O)(=O)c1ccc(F)cc1Cl [Compound 73] | 1 to 50 | – |
| COc1ncc(-c2ccc3ncc(OC4CCN(C)CC4)c(=O)n3c2)cc1NS(=O)(=O)c1ccc(F)cc1Cl [Compound 74] | 1 to 50 | – |
| COc1ncc(-c2ccc3ncc(OCC4CCNCC4)c(=O)n3c2)cc1NS(=O)(=O)c1ccc(F)cc1Cl [Compound 76] | – | > 250 |
| COc1ncc(-c2ccc3ncc(OCC4CC(F)(F)CN4)c(=O)n3c2)cc1NS(=O)(=O)c1ccc(F)cc1Cl (stereo not shown) [Compound 83] | 1 to 50 | – |
| COc1ncc(-c2ccc3ncc(OCCN(CCO)CC(F)(F)F)c(=O)n3c2)cc1NS(=O)(=O)c1ccc(F)cc1Cl [Compound 84] | 1 to 50 | – |
| COc1ncc(-c2ccc3ncc(OCCN4CCOCC4C(N)=O)c(=O)n3c2)cc1NS(=O)(=O)c1ccc(F)cc1Cl (stereo not shown) [Compound 86] | ≤ 1 | – |
| COc1ncc(-c2ccc3ncc(OCCN4C5CCC4COC5)c(=O)n3c2)cc1NS(=O)(=O)c1ccc(F)cc1Cl [Compound 87] | ≤ 1 | – |
| COc1ncc(-c2ccc3ncc(OCCN4C[C@@H](C)O[C@@H](C)C4)c(=O)n3c2)cc1NS(=O)(=O)c1ccc(F)cc1Cl [Compound 91] | – | ≤ 50 |
| COc1ncc(-c2ccc3ncc(OCCNCC(F)(F)F)c(=O)n3c2)cc1NS(=O)(=O)c1ccc(F)cc1Cl [Compound 92] | ≤ 1 | – |
| COc1ncc(-c2ccc3ncc(OCCN4CCN(S(C)(=O)=O)CC4)c(=O)n3c2)cc1NS(=O)(=O)c1ccc(F)cc1Cl [Compound 93] | ≤ 1 | – |
| COc1ncc(-c2ccc3ncc(OCCN4CCNC(=O)C4)c(=O)n3c2)cc1NS(=O)(=O)c1ccc(F)cc1Cl [Compound 94] | – | > 250 |

More lines, now with the values ahead:

| IC50 (PI3K (p110α)) [nM] | IC50 (MCF-7 cells) [nM] | SMILES |
| --- | --- | --- |
| ≤ 1 | 50 to 100 | COc1ncc(-c2ccc3ncc(OCCN4CCN(C)CC4)c(=O)n3c2)cc1NS(=O)(=O)c1sc(C)nc1C [Compound 4] |
| ≤ 1 | > 250 | COc1ncc(-c2ccc3ncc(OCCN4CC5CC4CN5C)c(=O)n3c2)cc1NS(=O)(=O)c1sc(C)nc1C (stereo not shown) [Compound 5] |
| ≤ 1 | ≤ 50 | COc1ncc(-c2ccc3ncc(OCCN4CCCC4=O)c(=O)n3c2)cc1NS(=O)(=O)c1sc(C)nc1C [Compound 21, N-(2-Methoxy-5-(4-oxo-3-(2-(2-oxopyrrolidin-1-yl)ethoxy)-4H-pyrido[1,2-a]pyrimidin-7-yl)pyridin-3-yl)-2,4-dimethylthiazole-5-sulfonamide] |
| ≤ 1 | 100 to 250 | COc1ncc(-c2ccc3ncc(OCCNC(C)=O)c(=O)n3c2)cc1NS(=O)(=O)c1ccc(F)cc1Cl [Compound 22] |
| ≤ 1 | 50 to 100 | COc1ncc(-c2ccc3ncc(OCCNS(C)(=O)=O)c(=O)n3c2)cc1NS(=O)(=O)c1ccc(F)cc1Cl [Compound 23] |
| ≤ 1 | > 250 | COc1ncc(-c2ccc3ncc(OCC4CCCN4)c(=O)n3c2)cc1NS(=O)(=O)c1sc(C)nc1C (stereo not shown) [Compound 33] |
| ≤ 1 | 50 to 100 | COc1ncc(-c2ccc3ncc(OCC4CCCN4C)c(=O)n3c2)cc1NS(=O)(=O)c1sc(C)nc1C (stereo not shown) [Compound 34] |
| ≤ 1 | – | COc1ncc(-c2ccc3ncc(OCCN4CCS(=O)(=O)CC4)c(=O)n3c2)cc1NS(=O)(=O)c1sc(C)nc1C [Compound 61] |
| ≤ 1 | 100 to 250 | COc1ncc(-c2ccc3ncc(OCCN4CCOCC4)c(=O)n3c2)cc1NS(=O)(=O)c1ccc(F)c(F)c1 [Compound 62] |
| ≤ 1 | ≤ 50 | COc1ncc(-c2ccc3ncc(OCCN4CCOCC4)c(=O)n3c2)cc1NS(=O)(=O)c1c(Cl)cccc1Cl [Compound 63] |
| ≤ 1 | – | COc1ncc(-c2ccc3ncc(OCCN4CCOCC4)c(=O)n3c2)cc1NS(=O)(=O)c1c(F)cc(F)cc1Cl [Compound 64] |
| ≤ 1 | ≤ 50 | COc1ncc(-c2ccc3ncc(OCCN4CCOCC4=O)c(=O)n3c2)cc1NS(=O)(=O)c1ccc(F)cc1Cl [Compound 65] |
| ≤ 1 | ≤ 50 | COc1ncc(-c2ccc3ncc(OCCN4CCN(C)CC4)c(=O)n3c2)cc1NS(=O)(=O)c1ccc(F)cc1Cl [Compound 68] |
| ≤ 1 | – | COc1ncc(-c2ccc3ncc(OCCN(CCO)CCO)c(=O)n3c2)cc1NS(=O)(=O)c1ccc(F)cc1Cl [Compound 80] |
